# Measurements published in patent publication US12109184B2, “Personalized methods of treating cancer” (CANCER RESEARCH TECHNOLOGY LIMITED, priority 2020, dated 2024).
# Assays:
# [1] = system: MTAP-deleted HCT116 cells; experiment: Cell counting during cysteine starvation, MTAP-deleted HCT116; assay type: cell-based; details: −Cys, low levels of methionine
# [2] = system: MDA-MB-231, PANC-1, and MIAPaCa-2 cells; experiment: CellROX assay on live cells, starvation-sensitive cell lines; assay type: cell-based; details: cysteine starved, MTAP deleted cells, 18 h
# Procedure: Cells were seeded as described above. Live cells were stained with Hoechst 33342 nuclear stain for 20 min. The medium was removed, and cells were stained in 100 μl medium containing CellTracker™ Green CMFDA Dye and Hoechst stain for 40 min. The cells were then washed with PBS, and 300 μl of the relevant experimental medium was added for 1 hour. Then, CellROX® Deep Red was spiked into the medium, and the cells were incubated for 40 min. The medium was removed, the cells were washed with PBS, and new relevant experimental medium including CellROX was added. The cells were imaged using an Operetta automated microscope platform set to 37° C. in 5% CO2 every hour for 16-24 hours. I
smiles,measurement,setting,value
CSCC[C@H](N)C(=O)O [methionine],effect of methionine on survival during cysteine starvation,[1],inhibited the ability of MTAP deleted cells to survive
same,ROS levels (CellROX) in response to methionine concentration,[2],increased in a dose-dependent manner
